Source: patent US20250283124A1, “POLYHYDROXYALKANOATE-PRODUCING BACTERIA AND METHODS FOR MAKING AND USING THEM” (SAN DIEGO STATE UNIVERSITY (SDSU) FOUNDATION, DBA SAN DIEGO …, priority 2021, published 2025)

Test system: LW8
Test: Antibiotic susceptibility testing (antibiotic disks), strain LW8
Type: cell-based, Methylosinus sp.
Conditions: antibiotic disks on solid P0% media, methane:air, one week, disk content as in column head
Procedure: Antibiotic Resistance Tests: To identify genetic markers suitable for genetic manipulation of PHA producing cultures, an antibiotic-resistance screening using antibiotic disks was performed. All strains were plated onto solid P0% media by spreading, then up to 4 antibiotic disks were placed on top. The plates were incubated under methane:air for one week and then were evaluated.

[H]/N=C(/N)N[C@H]1[C@H](O)[C@@H](O)[C@H](O[C@@H]2O[C@@H](C)[C@](O)(C=O)[C@H]2O[C@@H]2O[C@@H](CO)[C@H](O)[C@@H](O)[C@@H]2NC)[C@@H](N/C(N)=N\[H])[C@@H]1O [Streptomycin]
Antibiotic susceptibility testing (AST) results: Resistant
